# Experiment: logP determination by HPLC (EEC Directive 79/831 Annex V. A8)
# Assay type: physicochemical
# Conditions: gradient method, acetonitrile/0.1% aqueous phosphoric acid
# Description: The logP values were determined in accordance with EEC Directive 79/831 Annex V. A8 by HPLC (gradient method, acetonitrile/0.1% aqueous phosphoric acid).
row,chromatographic logP,SMILES
1,3.82,"CC(C)Cc1nc(S(C)(=O)=O)nc(Cl)c1-c1ccc(F)cc1Cl [III-2a, 4-chloro-5-(2-chloro-4-fluorophenyl)-6-isobutyl-2-(methylsulphonyl)pyrimidine]"
2,3.79,"CC(C)Cc1nc(-n2cncn2)nc(Cl)c1-c1ccc(F)cc1Cl [Example 1, 4-chloro-5-(2-chloro-4-fluorophenyl)-6-isobutyl-2-(1H-1,2,4-triazol-1-yl)pyrimidine]"
3,5.67,"CSc1nc(Cl)c(-c2ccc(F)cc2Cl)c(CC(C)C)n1 [II-2, 4-chloro-5-(2-chloro-4-fluorophenyl)-6-isobutyl-2-(methylthio)pyrimidine]"
4,3.27,CC(C)Cc1nc([S+](C)[O-])nc(Cl)c1-c1ccc(F)cc1Cl (stereo not shown) [4-chloro-5-(2-chloro-4-fluorophenyl)-6-isobutyl-2-(methylsulphinyl)pyrimidine]
